In paper PMC6071684, “Defining the hydrophobic interactions that drive competence stimulating peptide (CSP)-ComD binding in Streptococcus pneumoniae” (Beilstein Journal of Organic Chemistry, 2018):
Where a SMILES comes first, the peptide text is derived from it. Where no end group is shown, it is not given here. [ ]: non-standard residue; d: D form. Phg = N[C@H](C(=O)O)c1ccccc1; Nle = CCCC[C@H](N)C(=O)O; Nva = CCC[C@H](N)C(=O)O

Tests used:
[1] = biological target: ComD1 receptor (S. pneumoniae (endogenous in D39pcomX::lacZ))
ComD2 receptor = ComD2 receptor (Streptococcus pneumoniae serotype 4, UniProt A0A0H2US84); assay: cell-based; conditions: for ComD2 primary agonism screening: low induction, EC50 not determined: TIGR4pcomX::lacZ, 10 µM peptide, only analogs with greater than 75% activation compared to CSP2 were taken to EC50
Procedure: (§1) To assess QS modulation, we utilized the β-gal reporter strains, constructed by Lau and co-worker. In these strains the lacZ gene is under the control of QS (pcomX). Thus, upon QS activation, ComE will bind pcomX and transcribe lacZ (in addition to upregulation of ComX). ComD modulation can therefore be quantified by measuring β-gal activity. The peptides were first screened for their ability to activate/inhibit the ComD1 and ComD2 receptors at high concentration (10 µM).
(§2) To examine the ability of the synthesized CSP analogs to modulate the ComD receptors, and thus the QS circuit in S. pneumoniae, β-galactosidase assays were performed using D39pcomX::lacZ (group I) and TIGR4pcomX::lacZ (group II) reporter strains as described in [19].
(§3) Bacterial growth conditions. Bacteria from a freezer stock were grown as described in [19]. Briefly, the bacteria were streaked into a THY agar plate supplemented with 5% donor horse serum and chloramphenicol at a final concentration of 4 µg/mL. The plate was incubated for 8 h in a CO2 incubator (37 °C with 5% CO2). Fresh colonies (single colony for D39pcomX::lacZ; multiple colonies for TIGR4pcomX::lacZ) were picked into sterilized cultural tubes containing 5 mL of THY broth supplemented with chloramphenicol at a final concentration of 4 µg/mL and the cultures were incubated in a CO2 incubator overnight (15 h). Overnight cultures were then diluted (1:50 for D39pcomX::lacZ; 1:10 for TIGR4pcomX::lacZ) with THY and the resulting solution was incubated in a CO2 incubator for 3–4 hours, until the bacteria reached early exponential stage (0.30–0.35 for D39pcomX::lacZ; 0.20–0.25 for TIGR4pcomX::lacZ) as determined by using a plate reader.
(§4) β-Galactosidase assay. Activation assays. […] Briefly, an initial activation screening was performed at high concentration (10 µM) for all CSP analogs. 2 µL of 1 mM solution of CSP analogs in dimethyl sulfoxide (DMSO) were added in triplicate to a clear 96-well microtiter plate. […] 2 µL of DMSO was added in triplicate and served as the negative control for both groups. Then, 198 µL of bacterial culture was added to each well containing CSP and analogs, the plate was incubated at 37 °C for 30 minutes, and the OD600nm was measured. In order to measure the β-galactosidase activity in the pneumococcal culture, the cells were lysed by incubating the culture for 30 minutes at 37 °C with 20 µL of 0.1% Triton X-100. In a new plate, 100 µL of Z-buffer solution (60.2 mM Na2HPO4, 45.8 mM NaH2PO4, 10 mM KCl, and 1.0 mM MgSO4 in 18 MΩ H2O; pH was adjusted to 7.0 and the buffer was sterilized before use) containing 2-nitrophenyl-β-D-galactopyranoside (ONPG) at a final concentration of 0.4 mg/mL was added, followed by 100 µL of lysate, and the plate was incubated for 3 hours at 37 °C. The reaction was stopped by adding 50 µL of 1 M sodium carbonate solution, and the OD420nm and OD550nm were measured using a plate reader. […] For calculation of Miller units, please see data analysis below.
(§5) Analysis of activation/inhibition data. Miller units were calculated using the following formula: […]
(§6) Abs420 is the absorbance of ortho-nitrophenol (ONP). Abs550 is the scatter from cell debris, which, when multiplied by 1.75 approximates the scatter observed at 420 nm. t is the duration of incubation with ONPG in minutes, v is volume of lysate in milliliters, and Abs600 reflects cell density.

ComD1 receptor = ComD1 receptor (Streptococcus pneumoniae serotype 2, UniProt A0A0H2ZM50); assay: cell-based
Procedure: as §1, §2, §3, §4, §5, §6

Sequence of ComD2 receptor (A0A0H2US84 entry or part of it): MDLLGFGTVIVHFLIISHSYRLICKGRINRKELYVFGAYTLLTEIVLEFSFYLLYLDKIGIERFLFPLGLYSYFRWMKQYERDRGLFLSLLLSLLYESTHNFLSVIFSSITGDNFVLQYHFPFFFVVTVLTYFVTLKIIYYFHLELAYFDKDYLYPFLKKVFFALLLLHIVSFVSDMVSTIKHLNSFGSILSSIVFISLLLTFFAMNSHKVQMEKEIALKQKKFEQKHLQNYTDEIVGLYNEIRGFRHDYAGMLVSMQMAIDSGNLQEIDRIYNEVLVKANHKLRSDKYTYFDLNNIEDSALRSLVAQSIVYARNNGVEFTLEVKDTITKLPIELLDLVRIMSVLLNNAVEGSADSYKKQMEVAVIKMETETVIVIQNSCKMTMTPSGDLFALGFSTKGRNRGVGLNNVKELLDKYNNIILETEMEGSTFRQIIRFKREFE
Sequence of ComD1 receptor (A0A0H2ZM50 entry or part of it): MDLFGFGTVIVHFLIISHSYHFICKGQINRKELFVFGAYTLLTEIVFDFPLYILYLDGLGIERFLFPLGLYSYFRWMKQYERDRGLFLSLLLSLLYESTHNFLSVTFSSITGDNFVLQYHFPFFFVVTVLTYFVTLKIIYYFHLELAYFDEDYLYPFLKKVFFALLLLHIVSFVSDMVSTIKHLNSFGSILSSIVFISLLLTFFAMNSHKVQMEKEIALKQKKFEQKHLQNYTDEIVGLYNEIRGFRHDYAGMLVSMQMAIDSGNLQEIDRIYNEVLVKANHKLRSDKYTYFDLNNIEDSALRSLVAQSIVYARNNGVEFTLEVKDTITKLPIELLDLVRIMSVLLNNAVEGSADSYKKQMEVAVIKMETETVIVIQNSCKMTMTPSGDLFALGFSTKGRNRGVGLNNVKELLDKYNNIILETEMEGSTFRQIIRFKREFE

Compound	EC50 of activation of pcomX::lacZ (β-galactosidase) in reporter strain D39pcomX::lacZ (group I, ComD1) [1] [µM]	ComD2 primary agonism screening: low induction, EC50 not determined (ComD2 receptor)	EC50 (ComD1 receptor) [µM]	EC50 (ComD2 receptor) [µM]
CSP1-F8FG (peptide)	0.884			
EMRLSKFYRDFILQRKK-OH [CSP1-F8Y]		–^e	0.085	
EMRLSKYFRDFILQRKK-OH [CSP1-F7Y]		–^e	0.344	
CCCC[C@H](NC(=O)[C@@H](NC(=O)[C@H](Cc1ccccc1)NC(=O)[C@H](CC(=O)O)NC(=O)[C@H](CCCNC(=N)N)NC(=O)[C@H](Cc1ccccc1)NC(=O)[C@H](Cc1ccccc1)NC(=O)[C@H](CCCCN)NC(=O)[C@H](CO)NC(=O)[C@H](CC(C)C)NC(=O)[C@H](CCCNC(=N)N)NC(=O)[C@H](CCSC)NC(=O)[C@@H](N)CCC(=O)O)[C@@H](C)CC)C(=O)N[C@@H](CCC(N)=O)C(=O)N[C@@H](CCCNC(=N)N)C(=O)N[C@@H](CCCCN)C(=O)N[C@@H](CCCCN)C(=O)O [CSP1-L13NL]			0.0186	> 1
CSP1-F11Y (peptide)	0.0956			
EMRISKFFRDFILQRKK-OH [CSP1-L4I]			0.0102	> 1
CCC[C@H](NC(=O)[C@@H](NC(=O)[C@H](Cc1ccccc1)NC(=O)[C@H](CC(=O)O)NC(=O)[C@H](CCCNC(=N)N)NC(=O)[C@H](Cc1ccccc1)NC(=O)[C@H](Cc1ccccc1)NC(=O)[C@H](CCCCN)NC(=O)[C@H](CO)NC(=O)[C@H](CC(C)C)NC(=O)[C@H](CCCNC(=N)N)NC(=O)[C@H](CCSC)NC(=O)[C@@H](N)CCC(=O)O)[C@@H](C)CC)C(=O)N[C@@H](CCC(N)=O)C(=O)N[C@@H](CCCNC(=N)N)C(=O)N[C@@H](CCCCN)C(=O)N[C@@H](CCCCN)C(=O)O [CSP1-L13NV] (H-EMRLSKFFRDFI[Nva]QRKK-OH; N-terminus assumed)			0.0152	> 1
CC[C@H](C)[C@H](NC(=O)[C@H](Cc1ccccc1)NC(=O)[C@H](CC(=O)O)NC(=O)[C@H](CCCNC(=N)N)NC(=O)[C@H](Cc1ccccc1)NC(=O)[C@@H](NC(=O)[C@H](CCCCN)NC(=O)[C@H](CO)NC(=O)[C@H](CC(C)C)NC(=O)[C@H](CCCNC(=N)N)NC(=O)[C@H](CCSC)NC(=O)[C@@H](N)CCC(=O)O)c1ccccc1)C(=O)N[C@@H](CC(C)C)C(=O)N[C@@H](CCC(N)=O)C(=O)N[C@@H](CCCNC(=N)N)C(=O)N[C@@H](CCCCN)C(=O)N[C@@H](CCCCN)C(=O)O [CSP1-F7FG] (H-EMRLSK[Phg]FRDFILQRKK-OH; N-terminus assumed)			0.0813	0.828
EMRVSKFFRDFILQRKK-OH [CSP1-L4V]		–^e	0.113	
CC[C@H](C)[C@H](NC(=O)[C@H](Cc1ccccc1)NC(=O)[C@H](CC(=O)O)NC(=O)[C@H](CCCNC(=N)N)NC(=O)[C@@H](NC(=O)[C@H](Cc1ccccc1)NC(=O)[C@H](CCCCN)NC(=O)[C@H](CO)NC(=O)[C@H](CC(C)C)NC(=O)[C@H](CCCNC(=N)N)NC(=O)[C@H](CCSC)NC(=O)[C@@H](N)CCC(=O)O)c1ccccc1)C(=O)N[C@@H](CC(C)C)C(=O)N[C@@H](CCC(N)=O)C(=O)N[C@@H](CCCNC(=N)N)C(=O)N[C@@H](CCCCN)C(=O)N[C@@H](CCCCN)C(=O)O [CSP1-F8FG] (H-EMRLSKF[Phg]RDFILQRKK-OH; N-terminus assumed)		–^e	0.884	
CCCC[C@H](NC(=O)[C@H](Cc1ccccc1)NC(=O)[C@H](CC(=O)O)NC(=O)[C@H](CCCNC(=N)N)NC(=O)[C@H](Cc1ccccc1)NC(=O)[C@H](Cc1ccccc1)NC(=O)[C@H](CCCCN)NC(=O)[C@H](CO)NC(=O)[C@H](CC(C)C)NC(=O)[C@H](CCCNC(=N)N)NC(=O)[C@H](CCSC)NC(=O)[C@@H](N)CCC(=O)O)C(=O)N[C@@H](CC(C)C)C(=O)N[C@@H](CCC(N)=O)C(=O)N[C@@H](CCCNC(=N)N)C(=O)N[C@@H](CCCCN)C(=O)N[C@@H](CCCCN)C(=O)O [CSP1-I12NL] (H-EMRLSKFFRDF[Nle]LQRKK-OH; N-terminus assumed)			0.00668	> 1
CSP1-L13V (peptide)	0.031			
CSP1-F8Y (peptide)	0.085			
CSP1-L4V (peptide)	0.113			
CC[C@H](C)[C@H](NC(=O)[C@H](CCc1ccccc1)NC(=O)[C@H](CC(=O)O)NC(=O)[C@H](CCCNC(=N)N)NC(=O)[C@H](Cc1ccccc1)NC(=O)[C@H](Cc1ccccc1)NC(=O)[C@H](CCCCN)NC(=O)[C@H](CO)NC(=O)[C@H](CC(C)C)NC(=O)[C@H](CCCNC(=N)N)NC(=O)[C@H](CCSC)NC(=O)[C@@H](N)CCC(=O)O)C(=O)N[C@@H](CC(C)C)C(=O)N[C@@H](CCC(N)=O)C(=O)N[C@@H](CCCNC(=N)N)C(=O)N[C@@H](CCCCN)C(=O)N[C@@H](CCCCN)C(=O)O [CSP1-F11HF]			0.0658	> 1
CCC[C@H](NC(=O)[C@H](CCCNC(=N)N)NC(=O)[C@H](CCSC)NC(=O)[C@@H](N)CCC(=O)O)C(=O)N[C@@H](CO)C(=O)N[C@@H](CCCCN)C(=O)N[C@@H](Cc1ccccc1)C(=O)N[C@@H](Cc1ccccc1)C(=O)N[C@@H](CCCNC(=N)N)C(=O)N[C@@H](CC(=O)O)C(=O)N[C@@H](Cc1ccccc1)C(=O)N[C@H](C(=O)N[C@@H](CC(C)C)C(=O)N[C@@H](CCC(N)=O)C(=O)N[C@@H](CCCNC(=N)N)C(=O)N[C@@H](CCCCN)C(=O)N[C@@H](CCCCN)C(=O)O)[C@@H](C)CC [CSP1-L4NV] (H-EMR[Nva]SKFFRDFILQRKK-OH; N-terminus assumed)			0.00574	0.627
competence stimulating peptide 1 (CSP1) (from UniProt P60242 25-41)	0.0103			
CCC[C@H](NC(=O)[C@H](Cc1ccccc1)NC(=O)[C@H](CC(=O)O)NC(=O)[C@H](CCCNC(=N)N)NC(=O)[C@H](Cc1ccccc1)NC(=O)[C@H](Cc1ccccc1)NC(=O)[C@H](CCCCN)NC(=O)[C@H](CO)NC(=O)[C@H](CC(C)C)NC(=O)[C@H](CCCNC(=N)N)NC(=O)[C@H](CCSC)NC(=O)[C@@H](N)CCC(=O)O)C(=O)N[C@@H](CC(C)C)C(=O)N[C@@H](CCC(N)=O)C(=O)N[C@@H](CCCNC(=N)N)C(=O)N[C@@H](CCCCN)C(=O)N[C@@H](CCCCN)C(=O)O [CSP1-I12NV] (H-EMRLSKFFRDF[Nva]LQRKK-OH; N-terminus assumed)			0.0138	0.853
CCCC[C@H](NC(=O)[C@H](CCCNC(=N)N)NC(=O)[C@H](CCSC)NC(=O)[C@@H](N)CCC(=O)O)C(=O)N[C@@H](CO)C(=O)N[C@@H](CCCCN)C(=O)N[C@@H](Cc1ccccc1)C(=O)N[C@@H](Cc1ccccc1)C(=O)N[C@@H](CCCNC(=N)N)C(=O)N[C@@H](CC(=O)O)C(=O)N[C@@H](Cc1ccccc1)C(=O)N[C@H](C(=O)N[C@@H](CC(C)C)C(=O)N[C@@H](CCC(N)=O)C(=O)N[C@@H](CCCNC(=N)N)C(=O)N[C@@H](CCCCN)C(=O)N[C@@H](CCCCN)C(=O)O)[C@@H](C)CC [CSP1-L4NL]			0.0135	> 1
CSP1-I12V (peptide)	0.0153			
CSP1-F7Y (peptide)	0.344			
